This is an account of results in publication PMC8697972, “New Auranofin Analogs with Antibacterial Properties against Burkholderia Clinical Isolates” (Antibiotics, 2021).

Each structure is given as a SMILES string. In brackets after ≈: the same amount, converted by molar mass. Like-named read-outs stand apart in the source and are kept apart here.

The test system of the assay is B. cenocepacia K56-2. In words: Multistep resistance by serial passaging at 0.5× MIC. The assay is classed as cell-based, Burkholderia cenocepacia. The conditions noted are these: for MIC: Burkholderia cenocepacia; for change of MIC on serial passaging: 24 days of passaging at 0.5× MIC.
Where [1] appears, read: K562, 0 h, day 0 of serial passaging, read-out: starting MIC in multistep resistance assay.
[2] abbreviates: K562, after 12–16 days of passaging at 0.5× MIC, read-out: MIC reached on serial passaging.

The term MIC denotes the smallest concentration in the dilution series that meets the test's criterion for growth inhibition. For `C[C@H]1c2cccc(O)c2C(=O)C2=C(O)[C@]3(O)C(=O)C(C(N)=O)=C(O)[C@@H](N(C)C)[C@@H]3[C@@H](O)[C@@H]21` [DOX, doxycycline, reference compound], the minimal inhibitory concentration (MIC) reads like this: under setting [1], 4 µg/mL (≈ 9 µM); under setting [2], 256 µg/mL (≈ 576 µM).

Turning to `C[C@@H](O)[C@H]1C(=O)N2C(C(=O)O)=C(S[C@@H]3CN[C@H](C(=O)N(C)C)C3)[C@H](C)[C@H]12` [MEM, meropenem, reference compound], the MIC reads like this: under setting [1], 16 µg/mL (≈ 41.7 µM); under setting [2], 256 µg/mL (≈ 668 µM). Take `C[PH](C)(C)[Au][S]CCO` [MS-40, 2-mercaptoethanolatotrimethylphosphine gold(I)]: the “change of MIC on serial passaging” value is “no apparent increase”. As for `CC(O)C[S][Au-][P+](C)(C)C` (stereo not drawn) [MS-40S], the “change of MIC on serial passaging” value is on record as “no apparent increase”.
